How the values were obtained:
[1] = system: phosphorylated γH2AX in SW620 cells; test: Western blot of DNA damage marker phosphorylated γH2AX, SW620; format: cell-based; conditions: 500 nM, time dependent up to 24 h
Procedure: (§1) Western-blot and phospho-array kits were used for evaluation of signaling intermediates. SW620 and HT29 cell lines were grown in DMEM 10% of FBS and at 70% confluence were treated with Formula (III) at 500 nM for 6, 12 and 24 hours. Cells were washed with phosphate-buffered saline (PBS) (137 mM NaCl, 2.7 mM KCl, 8 mM Na2HPO4, 1.5 mM KH2PO4) and lysed in ice-cold lysis buffer (20 mM Tris-HCl [pH 7.0], 140 mM NaCl, 50 mM EDTA, 10% glycerol, 1% Nonidet P-40, 1 μM pepstatin, 1 μg/mL aprotinin, 1 μg/mL leupeptin, 1 mM phenylmethyl sulfonyl fluoride, 1 mM sodium orthovanadate). Lysates were centrifuged at 10000 g at 4° C. for 10 minutes. The protein level in the supernatants was quantified using BCA protein assay (Sigma Aldrich). A total of 50 μg of protein of each sample was used for analysis. Samples were then boiled in electrophoresis sample buffer and placed on 6%-15% sodium dodecyl sulfate-polyacrylamide gel electrophoresis (SDS-PAGE) gels, depending on the molecular weight of the proteins to be analyzed. Briefly, after electrophoresis, proteins in gels were transferred to polyvinylidene difluoride membranes (Millipore Corporation). Membranes were blocked in Tris-buffered saline with Tween (TBST) (100 mM Tris [pH 7.5], 150 mM NaCl, 0.05% Tween 20) containing 1% of bovine serum albumin for 1 h and then incubated overnight with the corresponding antibody. […]

SW620 cells [2] = test: MTT metabolization, SW620 cell proliferation; format: cell-based
Procedure: (§2) SW620, HT29 and SW48 were grown in DMEM; this medium was purchased from Sigma Aldrich, supplemented with 10% FBS, 100 mU/mL penicillin, 100 μg/mL streptomycin and 2 mM L-glutamine, in a 5% CO2 atmosphere at 37° C. These colorectal cancer cell lines were obtained from the American Type Culture Collection Cell Biology Collection (ATCC) (Manassas, Va.). The medium was changed every 2 days.
(§3) Cell proliferation and growth experiments were carried out using 3-(4,5-dimethylthiazol-2-yl)-2,5-diphenyltetrazolium bromide (MTT) uptake assays, where MTT is reduced to purple formazan by the mitochondria of living cells. Increase in cell number is detected by augmented MTT metabolization, and decrease in cell number is reflected by a decrease. SW620, HT29 and SW48 cells were plated at a density of 1×10^4 cells per well in 24-well plates and cultured overnight in DMEM supplemented with 10% FBS. The cells were treated with the drug at different concentrations to plot the dose—response curves in all cancer cell lines using in the study. […] After treatment, each well was replaced with 250 μL of fresh medium containing MTT ([…]) and incubated for 1 hour. The medium was then removed and 500 μL of dimethyl sulfoxide was added to each well. The plate was agitated in the dark for 5 minutes to dissolve the MTT-formazan crystals. The absorbance of the samples was recorded at 562 nm in a multi-well plate reader (BMG labtech). Results were plotted as the mean values of quadruplicates from a representative experiment that was repeated at least two independent times.
(§4) Combination index values less than 1 indicate synergism, values equal to 1 indicate an additive effect, whereas values greater than 1 indicate antagonism. Combination index values from three independent experiments were generated.

HT29 cells [3] = test: Apoptosis by Annexin V flow cytometry, HT29; format: cell-based; conditions: 48 hours
Procedure: (§5) Cell cycle analyses and evaluation of apoptosis were performed by flow cytometry using propidium iodide and Annexin V, respectively.
(§6) For apoptosis analyses, SW620 and HT29 cell monolayers were incubated in trypsin—EDTA, washed twice with cold PBS, and then resuspended in binding buffer (10 mM HEPES free acid [pH 7.4], 140 mM NaCl, 2.5 mM CaCl2) at a concentration of 1×10^6 cells per mL. A total of 1×10^5 cells were incubated for 15 minutes in the dark with Annexin V-APC (BD Biosciences) and propidium iodide (PI) staining solution (5 μL Annexin […], 10 μL of PI [[…] final concentration], 400 μL binding buffer).

[4] = system: phosphorylated γH2AX in HT29 cells; test: Western blot of DNA damage marker phosphorylated γH2AX, HT29; format: cell-based; conditions: 500 nM, time dependent up to 24 h
Procedure: as §1

SW620 cells [5] = test: Cell cycle analysis by flow cytometry (propidium iodide), SW620; format: cell-based; conditions: 500 nM, 24 h
Procedure: as §5
(§7) For cell cycle analyses, SW620 and HT29 cells were cultured in 100-mm culture dishes, grown to 70% confluence, and treated with 500 nM Formula (III) for 24 h. Cell monolayers were then incubated in trypsin—EDTA and resuspended in 1 mL of PBS. After three washes with PBS, the cell pellets were resuspended in ice cold 70% ethanol for 2 min and centrifuged 5 min at 1800 rpm. The cell pellets were treated with 1 mL of propidium iodide (PI) staining solution (PBS containing 50 μg/mL of PI, 0.5% Tween 20, 0.1 μg/mL RNase A) (BD Biosciencies) and incubated in the dark for 1 h. DNA content and cell cycle analyses were performed by using a FACS canto II flow cytometer and the CellQuest software (BD Biosciences).

SW620 cells [6] = test: Apoptosis by Annexin V flow cytometry, SW620; format: cell-based; conditions: 48 hours
Procedure: as §5, §6

[7] = system: SW620, HT29 and SW48 cells; test: MTT metabolization, colorectal cancer cell lines (IC50 dose, line not specified); format: cell-based; conditions: dose used for time-response curve
Procedure: as §3

HT29 cells [8] = test: MTT metabolization, HT29 cell proliferation; format: cell-based
Procedure: as §2, §3, §4

HT29 cells [9] = test: Cell cycle analysis by flow cytometry (propidium iodide), HT29; format: cell-based; conditions: 500 nM, 24 h
Procedure: as §5, §7

[10] = system: pS6, AKT, Src and Lck in SW620 cells; test: Phospho-kinase dot blot array and Western blot, SW620; format: cell-based; conditions: 500 nM, at 6 hours or 12 hours
Procedure: as §1

[11] = animal models; background statement; cited from earlier work
[12] = system: pS6 and Src in HT29 cells; test: Phospho-kinase dot blot array and Western blot, HT29; format: cell-based; conditions: 500 nM, at 6 hours
Procedure: as §1

[13] = system: a range of tyrosine and serine/threonine kinases; conditions: biochemical assays; background statement; cited from earlier work
[14] = doses in the submicromolar (nanomolar) range

In the case of `C[C@]12O[C@H](C[C@H](O)[C@H]1O)n1c3ccccc3c3c4c(c5c6ccccc6n2c5c31)C(=O)NC4=O` [Formula (III)], the “phosphorylated levels of γH2AX (DNA damage)” value [1] is reported as “increase in the phosphorylated levels of γH2AX”, the “half-maximal inhibitory effect (MTT metabolization)” value (SW620 cells [2]) is reported as “nanomolar range” and the growth inhibition (SW620 cells [2]; [14]) is reported as “more than 80%”. The “effect on proliferation compared with other inhibitors” value (SW620 cells [2]; vs lapatinib, sunitinib, crizotinib, BEZ235, NVP-BSK805, dasatinib, 0 to 2 μM, 72 h) was “strong effect”, the “apoptosis (Annexin staining)” value (HT29 cells [3]) was “induction of apoptosis” and the “phosphorylated levels of γH2AX (DNA damage)” value [4] was “increase in the phosphorylated levels of γH2AX”. For the same compound, the “effect on cell cycle” value (SW620 cells [5]) was “strong arrest in G2/M phase”, the “apoptosis (Annexin staining)” value (SW620 cells [6]) was “induction of apoptosis” and the IC50 [7] was 500 nM. For the same compound, the “half-maximal inhibitory effect (MTT metabolization)” value (HT29 cells [8]) was “nanomolar range”, the growth inhibition (HT29 cells [8]; [14]) was “more than 80%” and the “effect on proliferation compared with other inhibitors” value (HT29 cells [8]; vs lapatinib, sunitinib, crizotinib, BEZ235, NVP-BSK805, dasatinib) was “strong effect”. For the same compound, the “effect on cell cycle” value (HT29 cells [9]) was “strong arrest in G2/M phase”, the “phosphorylation/activation status of kinases pS6, AKT, Src and Lck” value [10] was “strongly inhibited” and the “anti-tumoral activity in vivo” value [11] was “anti-tumoral activity”. For the same compound, the toxicities in vivo [11] was “no evidence of toxicities”, the “phosphorylation/activation status of pS6 and Src” value [12] was “inhibited” and the “affinity towards and inhibition of kinase activity” value [13] was “nanomolar and subnanomolar range”.

From US10238679B2, “Antitumor activity of multi-kinase inhibitors in colorectal cancer” (ENTRECHEM, S.L, priority 2014, dated 2019)
